Like-named read-outs stand apart in the source and are kept apart here.
Key:
[1] = target: RbgA (Staphylococcus aureus, UniProt A0A0H2XK72); assay: DRaCALA binding of 32P-labeled nucleotides to 6×His-tagged RbgA; settings: for Bmax, RbgA: Bmax values indicate the fraction bound
Description: FIG 1 Nucleotide binding characteristics of RA-GTPases. (A) Schematic representation of the domain structure of Era, RsgA, RbgA, and HflX from S. aureus. The conserved GTPase domain (G domain) is colored in green, and accessory domains are shown. (B) Determination of binding affinities and Kd values for ^32P-labeled GTP, GDP, ppGpp, and pppGpp with purified recombinant 6×His-tagged RbgA using DRaCALA, as previously described ([36]). Each point is the mean average of at least three technical replicates, and error bars indicate standard deviations. (C) Binding assay (DRaCALA) of recombinant RbgA binding to ^32P-labeled GTP, ppGpp, and pppGpp in the presence of an excess of cold competitor (GTP, GDP, ppGpp, pppGpp, or ATP). All experiments were carried out in triplicate, with error bars representing standard deviations.
The RA-GTPases RsgA, Era, RbgA, and HflX can bind to the guanosine nucleotides GTP, GDP, ppGpp, and pppGpp. Our previous work observed higher binding affinities for ppGpp over GTP, pointing toward a difference in binding between 5′ di- or triphosphate nucleotides ([27]). […] Furthermore, these previous experiments were performed using recombinant proteins fused to large MBP tags, which could impact binding affinity determination. To examine the nucleotide binding affinities of these RA-GTPases for GDP in comparison to ppGpp, pppGpp, and GTP, and in the absence of a large tag, we used a differential radial capillary action of ligand assay (DRaCALA) with recombinant RsgA, RbgA, Era, and HflX fused to a smaller 6× His tag (Fig. 1B; see also Fig. S2A to C in the supplemental material) ([36]). In each case, the affinities of 5′ diphosphate-containing GDP and ppGpp were similar in the low μM range and were 2- to 6-fold higher than the affinities of either GTP or pppGpp (Table 1).
The synthesis of (p)ppGpp and differential radial capillary action of ligand assay (DRaCALA) binding and competition assays were performed as described previously ([27]), using recombinant, 6×His-tagged protein at the concentrations specified in the figure legends.

[2] = target: HflX (Staphylococcus aureus, UniProt Q2FYY9); assay: GTPase activity assay of wild-type and Atto488-labeled HflX; format: biochemical; settings: 100 μM ppGpp, 1 μM GTP, 0.1 μM RA-GTPase, 0.1 μM 70S ribosomes, 37°C, 60 min
HflX, sequence (Q2FYY9 entry or part of it): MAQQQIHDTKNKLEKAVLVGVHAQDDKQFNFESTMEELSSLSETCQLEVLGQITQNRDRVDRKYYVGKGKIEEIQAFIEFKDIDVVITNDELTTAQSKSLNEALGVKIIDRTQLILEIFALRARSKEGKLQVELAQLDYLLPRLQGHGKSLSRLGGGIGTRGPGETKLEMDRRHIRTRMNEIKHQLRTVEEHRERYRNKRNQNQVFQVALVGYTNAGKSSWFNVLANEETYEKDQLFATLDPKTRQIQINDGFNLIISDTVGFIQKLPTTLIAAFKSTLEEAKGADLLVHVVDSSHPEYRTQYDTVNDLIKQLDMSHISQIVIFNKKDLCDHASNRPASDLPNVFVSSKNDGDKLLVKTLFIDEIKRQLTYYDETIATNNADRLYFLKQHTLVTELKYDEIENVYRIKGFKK
Description: To gain further insight into the binding mechanism and how (p)ppGpp reduces the association of RA-GTPases to the ribosomal subunits, we used a stopped-flow technique with fluorescent derivatives of the RA-GTPases (Fig. 3A). Structural predictions of all four RA-GTPases were built by homology modeling using available structures to assess the availability of suitable residues for fluorescence labeling (see Fig. S3A and B) ([43]). Both RbgA and HflX were amenable to covalent linkage to the fluorophore Atto-488 using maleimide chemistry with exposed cysteine residues. […]
Supplementary file : FIG S3 Labeling sites and GTPase activity of Atto488-labelled proteins. […] Enzymatic activity was monitored by TLC and quantified by using ImageQuant. […]
GTPase activity assays were performed as previously described ([10]). Briefly, the ability of proteins to hydrolyze GTP was determined by incubating 100 nM recombinant protein with 100 nM S. aureus 70S ribosomes, 1 μM GTP and 2.78 nM [α-^32P]GTP in 40 mM Tris (pH 7.5), 100 mM NaCl (100 mM KCl for RbgA), and 10 mM MgCl2 at 37°C for the indicated times. […] The radioactive spots were exposed to a BAS-MS imaging plate (Fujifilm) and visualized using an LA 7000 Typhoon PhosphorImager (GE Healthcare), and images were quantified using ImageQuant (GE Healthcare).

RbgA, sequence (A0A0H2XK72 entry or part of it): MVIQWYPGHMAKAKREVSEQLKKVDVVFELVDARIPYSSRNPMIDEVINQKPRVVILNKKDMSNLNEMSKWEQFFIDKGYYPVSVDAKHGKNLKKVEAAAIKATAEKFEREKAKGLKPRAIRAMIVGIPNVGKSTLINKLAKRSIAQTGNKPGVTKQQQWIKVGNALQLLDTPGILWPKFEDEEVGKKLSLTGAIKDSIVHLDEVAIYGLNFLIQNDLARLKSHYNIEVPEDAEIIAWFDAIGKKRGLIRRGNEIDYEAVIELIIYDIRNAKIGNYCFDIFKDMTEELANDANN

Row | SMILES | Kd ([1]; mean ± SEM, 32P-labeled nucleotide, 6×His-tagged protein, read-out: Kd, RbgA) [µM] | Bmax, RbgA ([1]; mean ± SEM) | inhibition of GTPase activity of Atto488-labeled HflX [2] | Kd [1] [µM]
1 | Nc1nc2c(ncn2[C@@H]2O[C@H](COP(=O)(O)OP(=O)(O)O)[C@@H](OP(=O)(O)OP(=O)(O)O)[C@H]2O)c(=O)[nH]1 [ppGpp] | 2.9 ± 0.4 | 0.6 ± 0.0 | can still be inhibited | 
2 | Nc1nc2c(ncn2[C@@H]2O[C@H](COP(=O)(O)OP(=O)(O)OP(=O)(O)O)[C@@H](OP(=O)(O)OP(=O)(O)O)[C@H]2O)c(=O)[nH]1 [pppGpp] |  | 0.4 ± 0.0 |  | 13.8 ± 4

Source: article PMC8579695, “The Stringent Response Inhibits 70S Ribosome Formation in Staphylococcus aureus by Impeding GTPase-Ribosome Interactions” (mBio, 2021)
